± gives the expanded uncertainty stated by the source.
Tests used:
[1] = excess molar enthalpy (molar enthalpy of mixing); xn = mol fraction of the nth substance listed; details: 101.32 kPa, Liquid, Calvet calorimetry
[2] = xn = mol fraction of the nth substance listed; details: 101.32 kPa, Liquid

COC(C)=O [methyl ethanoate] + CC(C)(C)O
Details	excess molar enthalpy [kcal/mol]	excess molar volume [m3/mol]
[1], 299.15 K, x1 = 0.0671	0.126 ± 0.00167	–
[1], 299.15 K, x1 = 0.1369	0.238 ± 0.00311	–
[1], 299.15 K, x1 = 0.2113	0.341 ± 0.0043	–
[1], 299.15 K, x1 = 0.2812	0.417 ± 0.00526	–
[1], 299.15 K, x1 = 0.3492	0.472 ± 0.00598	–
[1], 299.15 K, x1 = 0.4106	0.504 ± 0.00621	–
[1], 299.15 K, x1 = 0.4675	0.519 ± 0.00645	–
[1], 299.15 K, x1 = 0.4928	0.522 ± 0.00645	–
[1], 299.15 K, x1 = 0.5304	0.524 ± 0.00645	–
[1], 299.15 K, x1 = 0.5753	0.517 ± 0.00645	–
[1], 299.15 K, x1 = 0.6226	0.5 ± 0.00621	–
[1], 299.15 K, x1 = 0.6741	0.47 ± 0.00598	–
[1], 299.15 K, x1 = 0.7293	0.427 ± 0.00526	–
[1], 299.15 K, x1 = 0.7866	0.368 ± 0.00454	–
[1], 299.15 K, x1 = 0.8439	0.292 ± 0.00359	–
[1], 299.15 K, x1 = 0.9019	0.201 ± 0.00263	–
[1], 299.15 K, x1 = 0.9551	0.107 ± 0.00141	–
[1], 318.15 K, x1 = 0.071	0.113 ± 0.00151	–
[1], 318.15 K, x1 = 0.1469	0.216 ± 0.00263	–
[1], 318.15 K, x1 = 0.2304	0.311 ± 0.00382	–
[1], 318.15 K, x1 = 0.3022	0.382 ± 0.00478	–
[1], 318.15 K, x1 = 0.3713	0.434 ± 0.0055	–
[1], 318.15 K, x1 = 0.4322	0.471 ± 0.00598	–
[1], 318.15 K, x1 = 0.4898	0.49 ± 0.00598	–
[1], 318.15 K, x1 = 0.5407	0.492 ± 0.00621	–
[1], 318.15 K, x1 = 0.5865	0.485 ± 0.00598	–
[1], 318.15 K, x1 = 0.6105	0.475 ± 0.00598	–
[1], 318.15 K, x1 = 0.6585	0.451 ± 0.00574	–
[1], 318.15 K, x1 = 0.711	0.414 ± 0.00526	–
[1], 318.15 K, x1 = 0.7628	0.367 ± 0.00454	–
[1], 318.15 K, x1 = 0.817	0.308 ± 0.00382	–
[1], 318.15 K, x1 = 0.8636	0.242 ± 0.00311	–
[1], 318.15 K, x1 = 0.9085	0.174 ± 0.00237	–
[1], 318.15 K, x1 = 0.9567	0.0889 ± 0.00148	–
[2], 303.15 K, x1 = 0.0451	–	1.65e-07 ± 1.6e-08
[2], 303.15 K, x1 = 0.0901	–	3.35e-07 ± 1.7e-08
[2], 303.15 K, x1 = 0.1537	–	5.06e-07 ± 1.8e-08
[2], 303.15 K, x1 = 0.1973	–	6.07e-07 ± 1.8e-08
[2], 303.15 K, x1 = 0.2481	–	7.02e-07 ± 1.9e-08
[2], 303.15 K, x1 = 0.2631	–	7.32e-07 ± 1.9e-08
[2], 303.15 K, x1 = 0.3042	–	8.09e-07 ± 1.9e-08
[2], 303.15 K, x1 = 0.3448	–	8.49e-07 ± 1.9e-08
[2], 303.15 K, x1 = 0.3957	–	8.87e-07 ± 2e-08
[2], 303.15 K, x1 = 0.4411	–	9.04e-07 ± 2e-08
[2], 303.15 K, x1 = 0.4445	–	8.99e-07 ± 2e-08
[2], 303.15 K, x1 = 0.4964	–	8.92e-07 ± 2e-08
[2], 303.15 K, x1 = 0.5515	–	8.74e-07 ± 2e-08
[2], 303.15 K, x1 = 0.5677	–	8.68e-07 ± 2e-08
[2], 303.15 K, x1 = 0.5954	–	8.5e-07 ± 1.9e-08
[2], 303.15 K, x1 = 0.6467	–	7.94e-07 ± 1.9e-08
[2], 303.15 K, x1 = 0.6956	–	7.42e-07 ± 1.9e-08
[2], 303.15 K, x1 = 0.7432	–	6.59e-07 ± 1.9e-08
[2], 303.15 K, x1 = 0.8016	–	5.54e-07 ± 1.8e-08
[2], 303.15 K, x1 = 0.8477	–	4.63e-07 ± 1.8e-08
[2], 303.15 K, x1 = 0.9067	–	3.28e-07 ± 1.7e-08
[2], 303.15 K, x1 = 0.9465	–	2.17e-07 ± 1.7e-08
[2], 318.15 K, x1 = 0.102	–	3.93e-07 ± 1.7e-08
[2], 318.15 K, x1 = 0.165	–	5.61e-07 ± 1.8e-08
[2], 318.15 K, x1 = 0.2168	–	6.84e-07 ± 1.9e-08
[2], 318.15 K, x1 = 0.2804	–	7.71e-07 ± 1.9e-08
[2], 318.15 K, x1 = 0.349	–	8.76e-07 ± 2e-08
[2], 318.15 K, x1 = 0.4031	–	9.16e-07 ± 2e-08
[2], 318.15 K, x1 = 0.4596	–	9.41e-07 ± 2e-08
[2], 318.15 K, x1 = 0.5227	–	9.15e-07 ± 2e-08
[2], 318.15 K, x1 = 0.5784	–	8.91e-07 ± 2e-08
[2], 318.15 K, x1 = 0.6398	–	8.5e-07 ± 1.9e-08
[2], 318.15 K, x1 = 0.6786	–	8.06e-07 ± 1.9e-08
[2], 318.15 K, x1 = 0.7422	–	7.18e-07 ± 1.9e-08
[2], 318.15 K, x1 = 0.7969	–	5.7e-07 ± 1.8e-08
[2], 318.15 K, x1 = 0.8256	–	5.31e-07 ± 1.8e-08
[2], 318.15 K, x1 = 0.9077	–	3.01e-07 ± 1.7e-08
[2], 318.15 K, x1 = 0.9496	–	1.86e-07 ± 1.6e-08

Reference: the NIST ThermoML archive (doi:10.1021/je034290l)
